target: LRRK2 recombinant protein (Homo sapiens (Human), UniProt Q5S007); assay: radiometric protein kinase assay (33PanQinase Activity Assay) for LRRK2; type: biochemical; details: ATP 0.3 μM, LRRK2 7.3 nM, substrate GSK3(14-27), 30° C. for 60 minutes
Protocol: The inhibition of LRRK2 kinase was assessed using LRRK2 recombinant protein in an in vitro peptide-based kinase assay.
A radiometric protein kinase assay (^33PanQinase® Activity Assay) is used for measuring the kinase activity. All assays are performed in 96-well FlashPlates™ from Perkin Elmer in a 50 μl reaction volume. The reaction cocktail is pipetted in 4 steps in the following order: • 10 μl of non-radioactive ATP solution (in H2O) • 25 μl of assay buffer/[γ-^33P]-ATP mixture • 5 μl of test sample in 10% DMSO • 10 μl of enzyme/substrate mixture
The assay for LRRK2 contains 70 mM HEPES-NaOH pH 7.5, 3 mM MgCl2, 3 mM MnCl2, 3 μM Na-orthovanadate, 1.2 mM DTT, 50 μg/ml PEG20000, ATP (0.3 μM), [γ-^33P]-ATP (approx. […] per well), protein kinase LRRK2 (7.3 nM) and substrate (GSK3(14-27), 1.0 μg/50 μl).
The kinase is obtained from Invitrogen Corporation.
The reaction cocktails were incubated at 30° C. for 60 minutes. The reaction was stopped with 50 μl of 2% (v/v) H3PO4, plates were aspirated and washed two times with 200 μl 0.9% (w/v) NaCl. Incorporation of ^33Pi (counting of “cpm”) was determined with a microplate scintillation counter.
The compounds are dissolved to 10 mM in DMSO. Where needed, solutions are sonicated in a bath sonicator.
Table 2 provides the pIC50 values of the compounds according to the invention, obtained using the above mentioned kinase assay.

LRRK2 recombinant protein, sequence (Q5S007 whole entry): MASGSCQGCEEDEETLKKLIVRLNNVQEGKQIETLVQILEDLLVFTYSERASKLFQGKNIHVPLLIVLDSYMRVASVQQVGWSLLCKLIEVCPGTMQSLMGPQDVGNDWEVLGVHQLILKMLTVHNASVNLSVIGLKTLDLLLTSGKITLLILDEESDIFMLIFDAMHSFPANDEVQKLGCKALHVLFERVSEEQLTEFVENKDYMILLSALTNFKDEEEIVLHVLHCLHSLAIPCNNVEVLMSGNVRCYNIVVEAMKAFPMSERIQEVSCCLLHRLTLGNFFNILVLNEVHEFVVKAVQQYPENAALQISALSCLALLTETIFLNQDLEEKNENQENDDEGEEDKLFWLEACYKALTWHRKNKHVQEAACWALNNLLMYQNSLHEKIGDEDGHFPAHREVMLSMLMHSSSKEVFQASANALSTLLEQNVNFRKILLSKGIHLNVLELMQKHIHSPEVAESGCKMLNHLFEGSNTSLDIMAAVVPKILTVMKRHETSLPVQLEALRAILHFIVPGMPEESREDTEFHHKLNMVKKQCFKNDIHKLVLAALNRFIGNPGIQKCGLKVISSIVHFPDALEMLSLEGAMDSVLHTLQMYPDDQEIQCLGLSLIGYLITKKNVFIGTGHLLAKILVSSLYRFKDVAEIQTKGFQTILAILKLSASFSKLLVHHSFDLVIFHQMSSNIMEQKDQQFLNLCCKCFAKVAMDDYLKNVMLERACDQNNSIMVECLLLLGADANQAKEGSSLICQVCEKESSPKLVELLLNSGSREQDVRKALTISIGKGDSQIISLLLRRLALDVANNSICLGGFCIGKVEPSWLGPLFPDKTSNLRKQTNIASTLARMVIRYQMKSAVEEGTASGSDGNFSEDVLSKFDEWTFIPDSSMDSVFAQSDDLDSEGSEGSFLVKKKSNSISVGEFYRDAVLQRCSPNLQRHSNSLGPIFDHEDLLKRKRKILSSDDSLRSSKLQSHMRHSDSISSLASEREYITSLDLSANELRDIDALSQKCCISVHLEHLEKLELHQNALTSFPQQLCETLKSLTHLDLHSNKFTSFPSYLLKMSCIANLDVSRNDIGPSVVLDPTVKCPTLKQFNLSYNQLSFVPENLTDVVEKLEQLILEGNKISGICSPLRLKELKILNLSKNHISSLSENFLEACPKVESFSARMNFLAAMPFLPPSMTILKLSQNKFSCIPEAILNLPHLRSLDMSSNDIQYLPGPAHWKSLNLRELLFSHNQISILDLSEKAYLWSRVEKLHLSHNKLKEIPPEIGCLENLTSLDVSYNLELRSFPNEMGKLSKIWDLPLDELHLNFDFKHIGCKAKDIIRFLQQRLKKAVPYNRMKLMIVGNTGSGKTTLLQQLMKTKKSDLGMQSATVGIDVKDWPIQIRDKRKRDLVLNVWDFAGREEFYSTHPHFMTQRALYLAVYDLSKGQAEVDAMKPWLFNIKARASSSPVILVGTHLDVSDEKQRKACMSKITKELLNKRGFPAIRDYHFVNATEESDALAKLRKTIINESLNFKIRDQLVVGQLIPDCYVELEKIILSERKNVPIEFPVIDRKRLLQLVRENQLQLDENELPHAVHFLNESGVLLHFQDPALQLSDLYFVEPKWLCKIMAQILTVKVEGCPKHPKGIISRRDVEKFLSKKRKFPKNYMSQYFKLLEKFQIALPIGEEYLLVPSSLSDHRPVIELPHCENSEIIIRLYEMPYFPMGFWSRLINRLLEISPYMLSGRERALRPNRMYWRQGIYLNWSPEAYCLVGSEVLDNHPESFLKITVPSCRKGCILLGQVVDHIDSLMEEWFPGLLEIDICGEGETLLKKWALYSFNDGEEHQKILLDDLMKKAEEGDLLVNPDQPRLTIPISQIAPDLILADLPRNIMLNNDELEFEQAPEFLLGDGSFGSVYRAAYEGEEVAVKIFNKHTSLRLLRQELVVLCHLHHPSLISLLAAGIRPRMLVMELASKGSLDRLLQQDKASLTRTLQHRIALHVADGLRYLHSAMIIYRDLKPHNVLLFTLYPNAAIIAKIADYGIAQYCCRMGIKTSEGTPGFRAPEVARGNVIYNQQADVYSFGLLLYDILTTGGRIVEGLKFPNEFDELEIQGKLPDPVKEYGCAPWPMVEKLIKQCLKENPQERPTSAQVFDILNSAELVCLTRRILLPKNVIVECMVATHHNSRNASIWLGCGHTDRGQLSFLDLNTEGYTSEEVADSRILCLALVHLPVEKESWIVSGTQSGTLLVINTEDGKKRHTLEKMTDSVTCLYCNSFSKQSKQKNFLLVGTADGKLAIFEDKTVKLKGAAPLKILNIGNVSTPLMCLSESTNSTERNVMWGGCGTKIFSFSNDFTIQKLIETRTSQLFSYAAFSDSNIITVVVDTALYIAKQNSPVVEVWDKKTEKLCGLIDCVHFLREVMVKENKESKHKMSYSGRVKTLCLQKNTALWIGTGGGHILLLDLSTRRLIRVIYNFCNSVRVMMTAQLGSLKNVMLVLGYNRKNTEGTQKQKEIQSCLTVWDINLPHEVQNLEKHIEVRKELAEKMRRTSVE

SMILES | IC50 [nM]
Fc1ccc2cc1-c1cnn3ccc(nc13)NCCN1CCC[C@H]1CN2 [Example N2] | < 100
Fc1ccc2cc1-c1cnn3ccc(nc13)NC1CCN(CCN2)CC1 [Example N3] | < 100
Fc1ccc2cc1-c1cnn3ccc(nc13)NCCN1CCC(CC1)N2 [Example N4] | < 100
Fc1ccc2cc1-c1cnn3ccc(nc13)NCCC1CCCN1CCN2 (stereo not drawn) [Example N5] | < 100
Fc1ccc2cc1-c1cnn3ccc(nc13)NC1CCN(CCCN2)C1 (stereo not drawn) [Example N6] | < 100
Fc1ccc2cc1-c1cnn3ccc(nc13)OC1CCN(CCN2)CC1 [Example N9] | 100 to 1000
Cc1cc(F)c2cc1NC[C@@H]1CCCN1CCNc1ccn3ncc-2c3n1 [Example N10] | < 100
CN1CCN2CCC[C@H]2COc2ccc(F)c(c2)-c2cnn3ccc1nc23 [Example N11] | < 100
Fc1ccc2cc1-c1cnn3ccc(nc13)NCCN1C[C@H](F)C[C@H]1CO2 [Example N12] | < 100
Fc1ccc2cc1-c1cnn3ccc(nc13)NCCCN1CCC[C@H]1CO2 [Example N14] | < 100
CN1c2ccn3ncc(c3n2)-c2cc(ccc2F)OCCN2CCC1CC2 [Example N15] | < 100
CN1CCN2CCC[C@H]2CNc2ccc(F)c(c2)-c2cnn3ccc1nc23 [Example N16] | < 100
Fc1ccc2cc1-c1cnn3ccc(nc13)NCCN1CCCC[C@H](C1)O2 [Example N18] | < 100
CN1CCN2CCCC[C@H]2COc2ccc(F)c(c2)-c2cnn3ccc1nc23 [Example N19] | < 100
Fc1ccc2cc1-c1cnn3ccc(nc13)OCCN1CCC[C@H]1CN2 [Example N21] | < 100
Fc1ccc2cc1-c1cnn3ccc(nc13)NCCN1CCOC[C@H]1CO2 [Example N22] | < 100
CN1CCN2CCNc3ccn4ncc(c4n3)-c3cc(ccc3F)OC[C@@H]2C1 [Example N23] | < 100
CN1CCN2CCOC[C@H]2COc2ccc(F)c(c2)-c2cnn3ccc1nc23 [Example N25] | < 100
Fc1cc(Cl)c2cc1-c1cnn3ccc(nc13)NCCN1CCC[C@H]1CO2 [Example N26] | < 100
Fc1ccc2cc1-c1cnn3ccc(nc13)NCCN1C[C@H]3CCCN3C[C@H]1CO2 [Example N27] | < 100
Fc1ccc2cc1-c1cnn3ccc(nc13)NCCN1C[C@H]3CCCN3C[C@@H]1CO2 [Example N30] | < 100

SMILES | IC50 [nM]
CN1CCN2C[C@H](CN3CCC[C@H]3C2)Oc2ccc(F)c(c2)-c2cnn3ccc1nc23 [Example N31] | < 100
Fc1ccc2cc1-c1cnn3ccc(nc13)NCCN1CCC(CC1)O2 [Example N33] | < 100
Fc1ccc2cc1-c1cnn3ccc(nc13)NCCN1CCNC[C@@H]1CO2 [Example N35] | < 100
Fc1ccc2cc1-c1cnn3ccc(nc13)NCCN1C[C@@H](F)C[C@H]1CO2 [Example N39] | 100 to 1000
C[C@H]1C[C@@H]2CCN1CCNc1ccn3ncc(c3n1)-c1cc(ccc1F)O2 [Example N40] | < 100
CN1CCN2C[C@@H]3CCCN3C[C@H]2COc2ccc(F)c(c2)-c2cnn3ccc1nc23 [Example N42] | < 100
Fc1ccc2cc1-c1cnn3ccc(nc13)NCCN1C[C@@H](CN3CCC[C@H]3C1)O2 [Example N43] | < 100
CN1CCN2C[C@@H](CN3CCC[C@H]3C2)Oc2ccc(F)c(c2)-c2cnn3ccc1nc23 [Example N44] | < 100
C[C@@H]1CN2CCNc3ccn4ncc(c4n3)-c3cc(ccc3F)OC[C@@H]2CN1 [Example N45] | < 100
C[C@@H]1CN2CCNc3ccn4ncc(c4n3)-c3cc(ccc3F)OC[C@@H]2CN1C [Example N46] | < 100
Fc1ccc2cc1-c1cnc3ccc(nn13)NCCN1CCC[C@H]1CO2 [Example N52] | < 100
C[C@H]1CN2CCNc3ccn4ncc(c4n3)-c3cc(ccc3F)OC[C@@H]2CN1 [Example N53] | < 100
C[C@H]1CN2CCNc3ccn4ncc(c4n3)-c3cc(ccc3F)O[C@H](CN1)C2 [Example N54] | < 100
CC1(C)CN2CCNc3ccn4ncc(c4n3)-c3cc(ccc3F)OC[C@@H]2CN1 [Example N55] | < 100
CC(C)[C@H]1CN2CCN(C)c3ccn4ncc(c4n3)-c3cc(ccc3F)OC[C@@H]2CN1 [Example N56] | 100 to 1000
Fc1ccc2cc1-c1cnn3ccc(nc13)N[C@H]1CCCN(CCO2)C1 [Example N57] | < 100
CC1(C)CN2CCNc3ccn4ncc(c4n3)-c3cc(ccc3F)O[C@H](CN1)C2 [Example N58] | < 100
Fc1ccc2cc1-c1cnc3ccc(nn13)NCCN1CCCC[C@H](C1)O2 [Example N59] | < 100
Fc1ccc2cc1-c1cnn3ccc(nc13)N[C@@H]1CCN(CCO2)C1 [Example N60] | < 100
C=CCN1C[C@H]2COc3ccc(F)c(c3)-c3cnn4ccc(nc34)NCCN2CC1(C)C [Example N63] | < 100

The remaining lines, values ahead:

IC50 [nM] | SMILES
< 100 | c1cc2cc(c1)-c1cnn3ccc(nc13)NCCN1CCC[C@H]1CO2 [Example N1]
< 100 | Fc1ccc2cc1-c1cnn3ccc(nc13)OCCN1CCC(CC1)N2 [Example N7]
< 100 | Fc1ccc2cc1-c1cnn3ccc(nc13)NCCN1CCC[C@H]1CO2 [Example N8]
100 to 1000 | Fc1ccc2cc1-c1cnn3ccc(nc13)OCCCN1CCC[C@H]1CN2 [Example N13]
< 100 | Fc1ccc2cc1-c1cnn3ccc(nc13)NCCN1CCCC[C@H]1CO2 [Example N17]
< 100 | Fc1ccc2cc1-c1cnn3ccc(nc13)NCCN1CCNC[C@H]1CO2 [Example N20]
< 100 | CN1CCN2CCN(C)c3ccn4ncc(c4n3)-c3cc(ccc3F)OC[C@@H]2C1 [Example N24]
< 100 | Fc1ccc2cc1-c1cnn3ccc(nc13)NCCN1CCNC[C@H](C1)O2 [Example N28]
< 100 | CN1CCN2C[C@H]3CCCN3C[C@H]2COc2ccc(F)c(c2)-c2cnn3ccc1nc23 [Example N29]
< 100 | CC(=O)N1CCN2CCNc3ccn4ncc(c4n3)-c3cc(ccc3F)OC[C@@H]2C1 [Example N32]
< 100 | CN1CCN2CCC(CC2)Oc2ccc(F)c(c2)-c2cnn3ccc1nc23 [Example N34]
< 100 | CN1CCN2CCNc3ccn4ncc(c4n3)-c3cc(ccc3F)OC[C@H]2C1 [Example N36]
< 100 | Fc1ccc2cc1-c1cnn3ccc(nc13)CCCN1CCC[C@H]1CO2 [Example N37]
< 100 | Fc1ccc2cc1-c1cnn3ccc(nc13)NCCN1C[C@@H]3CCCN3C[C@H]1CO2 [Example N38]
< 100 | Fc1ccc2cc1-c1cnn3ccc(nc13)NCCN1CCC=C[C@H]1CO2 [Example N41]
< 100 | C[C@@H]1CN2CCNc3ccn4ncc(c4n3)-c3cc(ccc3F)OC[C@@H]2CN1C1CC1 [Example N47]
< 100 | CCCN1C[C@H]2COc3ccc(F)c(c3)-c3cnn4ccc(nc34)NCCN2C[C@H]1C [Example N48]
< 100 | C[C@@H]1CN2CCNc3ccn4ncc(c4n3)-c3cc(ccc3F)OC[C@@H]2CN1CC1CC1 [Example N49]
< 100 | CCN1C[C@H]2COc3ccc(F)c(c3)-c3cnn4ccc(nc34)NCCN2C[C@H]1C [Example N50]
< 100 | CC(C)[C@H]1CN2CCNc3ccn4ncc(c4n3)-c3cc(ccc3F)O[C@H](CN1)C2 [Example N51]
< 100 | CN1c2ccn3ncc(c3n2)-c2cc(ccc2F)OCCN2CC[C@@H]1C2 [Example N61]
< 100 | CC1(C)CN2CCNc3ccn4ncc(c4n3)-c3cc(ccc3F)OC[C@@H]2CN1C1CC1 [Example N62]

Reference: patent publication US10377772B2, “Macrocyclic LRRK2 kinase inhibitors” (Oncodesign S.A., priority 2014, dated 2019)
